Series [1] relates to ICAM-1. The series is described as follows: ICAM-1 ELISA / Western blot in RECs treated with melphalan. The series is classed as cell-based, human. Particulars: TNF-α siRNA or etanercept + melphalan. Background: ELISA stands for enzyme-linked immunosorbent assay.
In series [2] the test system is RECs.
Series [3] concerns p53. The series can be described thus: Immunoblot of phosphorylated and total p53 in RECs. The series is classed as cell-based, human. On the technique in general: Immunoblotting shows a protein as a band on a membrane.
Series [4] concerns RECs. The conditions noted are these: melphalan 4 μg/mL; cited from earlier work.
In series [5] the test system is Y79 retinoblastoma cells. The series can be described thus: Cell death ELISA in Y79 retinoblastoma cells. The series is classed as cell-based, human. Particulars: melphalan 0.8, 1 or 4 μg/mL tested.
For series [6], the system named is NF-κB. The series is described as follows: Western blot of phospho-NF-κB / total NF-κB in RECs. The conditions noted are these: melphalan 4 μg/mL. The series is classed as cell-based, human. The method, then: Western blotting. After appropriate treatments and rinsing with cold phosphate-buffered saline, REC were lysed in the lysis buffer containing the protease and phosphatase inhibitors and scraped into the tubes. Equal amounts of protein from the cell or tissue extracts were separated on the pre-cast tris-glycine gel (Invitrogen, Carlsbad, Calif.), blotted onto a nitrocellulose membrane. After blocking in TBST (10 mM Tris-HCl buffer, pH 8.0, 150 mM NaCl, 0.1% Tween 20) and 5% (w/v) BSA, the membrane was treated with NF-κB, Phospho-NF-κB p38^MAPK, Phospho-p38^MAPK antibodies (1:500) followed by incubation with horseradish peroxidase labeled secondary antibodies. The antigen-antibody complexes were detected using chemilluminescence reagent kit (Thermo Scientific).
Transfections. REC were transfected with ICAM-1 siRNA, TNF-α siRNA, or NF-κB siRNA at a final concentration of 20 nM using Lipofectamine™ RNAiMAX Transfection Reagent according to the manufacturer's instructions. After transfection, cells were starved in MVGS-free Medium 131 for 24 hours and used as required.

Series [7] relates to paxillin. The series is described as follows: Immunoblot of paxillin (Y118) phosphorylation in irradiated RECs. The series is classed as cell-based, human. Particulars: irradiated RECs 30 Gy, 24 hours, P<0.05.

“Also recorded” adds a separate entry of the source.

For etanercept, the “melphalan-induced ICAM-1 levels with TNF-α inhibition” value in series [1] is reported as “neither TNF-α siRNA nor etanercept could reduce ICAM-1 levels; also recorded: Neither TNFα siRNA nor etanercept reduced ICAM-1 levels”. For the same compound, the “REC apoptosis after melphalan treatment (etanercept)” value in series [2] (etanercept + melphalan) was “did not reach statistical significance”.
`OCc1ccc(-c2ccc(-c3ccc(CO)s3)o2)s1` [RITA]: in series [3] (RITA 10 μM for four hours vs untreated RECs, P<0.05), the p53 accumulation entry was “significantly enhanced”.
On to `N[C@@H](Cc1ccc(N(CCCl)CCCl)cc1)C(=O)O` [melphalan], for which, in series [4], the “increase in REC death” value is “greater than 6 fold”. Besides, the “apoptosis of Y79 retinoblastoma cells” value in series [5] was 4 μg/mL produced maximal apoptosis and best induces apoptosis at 4 μg/mL. In series [6], the “induction of NF-κB phosphorylation” value was “time-dependent” and the “time of maximum increase in NF-κB Ser536 phosphorylation” value was 30 min. In series [2] (melphalan 4 μg/mL, 24 hours), the “DNA fragmentation in RECs” value was “did increase DNA fragmentation”.
With `Oc1ccc(-c2nc(-c3ccncc3)c(-c3ccc(F)cc3)[nH]2)cc1` [SB202190], the “effect on RITA-induced p53 accumulation” value in series [3] (concomitant treatment with RITA, P>0.05) is “did not significantly alter”. The “phosphorylation of paxillin at Y118” value in series [7] is given as “significantly reduced”.

Source of the values: patent US10010516B2, “Method for regulating retinal endothelial cell viability” (The University of Tennessee Research Foundation, priority 2012, dated 2018).
